Assays:
[1] = biological target: α1B (Cav2.2), β3 and α2δ subunits of the N-type calcium channel (stable HEK cell line) (Rattus norvegicus, UniProt Q02294); assay: Calcium-dye indicator assay (FDSS, KCl depolarization); type: cell-based; settings: calcium mobilization response to 50 mM KCl; six-point concentration-response
Method: A stable cell line (HEK parent) co-expressing the α1B (Cav2.2), β3 and α2δ subunits of the N-type calcium channel subunits was used. These cells were routinely grown as monolayers in low glucose-containing Dulbecco's Modified Eagle Medium supplemented with 10% FBS, 2 mM L-glutamine, 100 I.U./mL penicillin, 100 μg/mL streptomycin, 400 μg/mL G418 and 200 μg/mL Zeocin (split ratio=1:5). Cells were maintained in 5% CO2 at 37° C. Compounds of Formula (I) were prepared as 10 mM stocks in DMSO from neat compound, if available. Otherwise, the 5 or 10 mM DMSO stock solutions provided in-house were used.
Calcium mobilization responses to KCl depolarization were evaluated by measuring the intensity of calcium-mediated fluorescent signal in the presence of BD Calcium Assay Dye (BD Biosciences, Franklin Lakes, N.J., U.S.A.), utilizing a Functional Drug Screening System (FDSS) by Hamamatsu Corporation (Bridgewater, N.J., U.S.A.).
Twenty-four hours prior to assay, cells were seeded in clear-base poly-D-lysine coated 384-well plates (BD Biosciences) at a density of 5,000 cells per well in culture medium and grown overnight in 5% CO2 at 37° C. On the day of assay growth media were removed and cells were loaded with BD calcium assay dye (BD Biosciences) for 35 min at 37° C. under 5% CO2 and then for 25 min at room temperature. Utilizing the FDSS, cells were exposed to representative compounds of Formula (I) at varying concentrations and intracellular calcium was measured for 5 min prior to the addition of 50 mM KCl for an additional 3 min of measurement.
Maximal fluorescence intensity (FI) achieved upon addition of 50 mM KCl was exported from the FDSS software and further analyzed using GraphPad Prism 4 (Graph Pad Software Inc., CA, U.S.A.). Data were normalized to the maximum average counts from quadruplicate wells for each condition in the presence of 50 mM KCl and to the minimum average counts in the presence of buffer. Theoretical curves were generated using nonlinear regression curve-fitting analysis of either sigmoidal concentration-response or sigmoidal concentration-response (variable slope), and the IC50 values with the best-fit dose curve determined by GraphPad Prism were reported.

[2] = tested on: Cav2.2 (N-type calcium channel; α1B, α2δ and β3 subunits stably expressed in HEK293 cells); assay: Automated electrophysiology assay (QPatch-HT patch clamp); type: cell-based
Method: The Cav2.2 (α1B) subunit (GenBank accession no. AAO53230; supplied by Lipscombe's laboratory at Brown University) was subcloned into pcDNA3.1, whereas the α2δ (M86621) and β3 (M88751) subunits were subcloned into pBudCE4.1 vectors. Stable cell lines expressing all three subunits were generated according to the following procedure: 1) HEK293 cells were transfected with α2δ−1/β3 expression constructs resulting in a stable cell line expressing α2δ−1 and β3 subunits that were selected under 200 μg/mL of Zeocin; 2) a stable cell line expressing α2δ−1/β3 subunits in high quantity as evidenced in its Western blots was isolated from the colony and purified; 3) this cell line was further transfected with Cav2.2 expression constructs, from which cells were subsequently selected under 400 μg/mL G418 and 200 μg/mL Zeocin; 4) these cells were clonally isolated, expanded and screened by Western blot analysis for expressing all three subunits
Cultures of cells stably expressing Cav2.2 were maintained at 37° C. in low glucose-containing Dulbecco's Modified Eagle medium (low glucose) under a 5% CO2 atmosphere. The medium was supplemented with 10% fetal bovine serum, 2 mM L-glutamine, 100 IU/mL penicillin, […] streptomycin, 400 μg/mL G418 and 200 μg/mL Zeocin.
High-throughput automated patch clamp system experiments were carried out using instruments (QPatch-HT) available from Sophion Biosciences, Inc. North Brunswick, N.J. Cells were grown in T175 flasks to 50%-90% confluence were enzymatically treated with Deatchin (Genlantis, San Diego, Calif., U.S.A.), centrifuged, rinsed and resuspended in 293 SFM II media (Life Technologies, Grand Island, N.Y., U.S.A.) supplemented with 25 mM HEPES (Sigma-Aldrich, St. Louis, Mo., U.S.A.) to a concentration of 2−3×10^6 cells/mL. Cells were added to automated cell preparation station on the QPatch-HT (Sophion Biosciences, North Brunswick, N.J., U.S.A.) and following a 10- to 30-min recovery period with gentle stirring, the assay protocol was initiated. During the automated cell preparation, cells were collected, centrifuged and resuspended in an extracellular (EC) solution containing 132 mM NaCl, 1.8 mM CaCl2, 5.4 mM KCl, 0.8 mM MgCl2, 10 mM glucose, and 10 mM HEPES (pH=7.4), adjusted with sucrose to 315 m0sm. The QPlate was primed with an intracellular solution containing 135 CsCl, 10 mM EGTA, 4 MgATP, 0.3 NaGTP, and 20 mM HEPES (pH=7.2), adjusted to approximately 290 m0sm with deionized water and the EC solution. Cells were added to the prepared QPlate wells by robotic pipettes of the QPatch-HT.
For cells determined to be in stable whole-cell patch clamp, the EC solution was replaced with a barium (Ba)/triethylammonium (TEA) solution containing 140 mM TEA-Cl, 10 mM BaCl2, 0.8 mM MgCl2, 10 mM glucose, and 10 mM HEPES (pH=7.4). High (40 mM) BaCl2 concentrations were made with adjustments of TEA-Cl (90 mM) to maintain the osmolarity. From a resting potential of −80 mV, a train of depolarizing pulses (15 pulses at 5 Hz, +20 mV) was delivered to the cell once every 30 sec for eight trains (4 min total), and the resulting currents were measured during a control period (no compound). This protocol was repeated for each subsequent addition of control buffer with or without compound (three periods total, each with four trains). The current generated in the 1st and 15th pulses of the last train of each period in the presence of each drug concentration was normalized to the current generated during the control period at the respective pulses (representing low- and high frequency stimulation, respectively). Data from both the second and third drug application period were analyzed for each cell. A final addition of Ba/TEA solution containing 60-100 uM CdCl2 was made to block all N-type current and “zero” the currents for each cell. A buffer/compound additions were made using a “spitting” feature of the QPatch-HT, which added three repretitions of 5 μL solution at the beginning of each recording period.

[3] = 0.1 μM, high frequency stimulation (15th pulse of 5 Hz train)
[4] = 0.1 μM, low frequency stimulation (1st pulse of train)

| SMILES | IC50 [1] | further results |
| --- | --- | --- |
| COc1ccccc1-n1nc(C2CC(C)(C)OC(C)(C)C2)cc1-c1ccc(OCCN(C)C)cc1 [Compound 82, 2-{4-[1-(2-Methoxyphenyl)-3-(2,2,6,6-tetramethyltetrahydro-2H-pyran-4-yl)-1H-pyrazol-5-yl]phenoxy}-N,N-dimethylethanamine] | 770 nM | – |
| CCc1ccccc1-n1nc(C2CCOCC2)cc1-c1ccc(Cl)cc1 [Compound 77, 5-(4-Chlorophenyl)-1-(2-ethylphenyl)-3-(tetrahydro-2H-pyran-4-yl)-1H-pyrazole] | 150 nM | – |
| CC1(C)CC(c2cc(-c3ccc(Cl)cc3)n(-c3ccncc3)n2)CC(C)(C)O1 [Compound 51, 4-[5-(4-Chlorophenyl)-3-(2,2,6,6-tetramethyltetrahydro-2H-pyran-4-yl)-1H-pyrazol-1-yl]-pyridine] | – | QPatch % Inhibition, High Freq ([2]; 0.1 µM): 22%; QPatch % Inhibition, Low Freq ([2]; 0.1 µM): −17% |
| COc1ccccc1-n1nc(C2CC(C)(C)OC(C)(C)C2)cc1-c1ccc([S+](C)[O-])cc1 (stereo not shown) [Compound 47, 5-(4-Methanesulfinyl-phenyl)-1-(2-methoxy-phenyl)-3-(2,2,6,6-tetramethyl-tetrahydro-pyran-4-yl)-1H-pyrazole] | – | QPatch % Inhibition, High Freq [2, 3]: 28%; QPatch % Inhibition, Low Freq [2, 4]: 25% |
| COc1ccccc1-n1nc(C2CC(C)(C)SC(C)(C)C2)cc1-c1ccc(Cl)cc1 [Compound 58, 5-(4-Chloro-phenyl)-1-(2-methoxy-phenyl)-3-(2,2,6,6-tetramethyl-tetrahydro-thiopyran-4-yl)-1H-pyrazole] | – | QPatch % Inhibition, High Freq [2, 3]: 26%; QPatch % Inhibition, Low Freq [2, 4]: 19% |
| COc1ccccc1-n1nc(C2=CC(C)(C)OC2(C)C)cc1-c1ccc(Cl)cc1 [Compound 97, 5-(4-Chlorophenyl)-1-(2-methoxyphenyl)-3-(2,2,5,5-tetramethyl-2,5-dihydrofuran-3-yl)-1H-pyrazole] | 13 nM | – |
| COc1ccccc1-n1nc(C2CC(C)(C)S(=O)(=O)C(C)(C)C2)cc1-c1ccc(Cl)cc1 [Compound 59, 5-(4-Chlorophenyl)-1-(2-methoxyphenyl)-3-(2,2,6,6-tetramethyl-1,1-dioxidotetrahydro-2H-thiopyran-4-yl)-1H-pyrazole] | – | QPatch % Inhibition, High Freq [2, 3]: 54%; QPatch % Inhibition, Low Freq [2, 4]: 54% |
| COc1ccccc1-n1nc(C2CC(C)(C)OC(C)(C)C2)cc1-c1ccnc(Cl)c1 [Compound 25, 2-Chloro-4-[1-(2-methoxyphenyl)-3-(2,2,6,6-tetramethyltetrahydro-2H-pyran-4-yl)-1H-pyrazol-5-yl]pyridine] | – | QPatch % Inhibition, High Freq [2, 3]: 29%; QPatch % Inhibition, Low Freq [2, 4]: 14% |
| CC1(C)CC(c2cc(-c3ccc(Cl)cc3)n(-c3ccccn3)n2)CC(C)(C)O1 [Compound 50, 2-[5-(4-Chloro-phenyl)-3-(2,2,6,6-tetramethyl-tetrahydro-pyran-4-yl)-pyrazol-1-yl]-pyridine] | – | QPatch % Inhibition, High Freq ([2]; 0.1 µM): 1%; QPatch % Inhibition, Low Freq ([2]; 0.1 µM): −37% |

Further lines, with some results ahead:

| IC50 [1] | SMILES | further results |
| --- | --- | --- |
| 140 nM | COc1ccccc1-n1nc(C2CC(C)(C)OC(C)(C)C2)cc1-c1ccncc1 [Compound 32, 4-[1-(2-Methoxyphenyl)-3-(2,2,6,6-tetramethyltetrahydro-2H-pyran-4-yl)-1H-pyrazol-5-yl]pyridine] | – |
| 82 nM | COc1ccccc1-n1nc(C2CC(C)(C)OC(C)(C)C2)cc1-c1ccnc(C)c1 [Compound 33, 4-[1-(2-Methoxyphenyl)-3-(2,2,6,6-tetramethyltetrahydro-2H-pyran-4-yl)-1H-pyrazol-5-yl]-2-methylpyridine] | – |
| 71 nM | COc1ccccc1-n1nc(C2CC(C)(C)OC(C)(C)C2)cc1-c1cccnc1 [Compound 45, 3-[1-(2-Methoxyphenyl)-3-(2,2,6,6-tetramethyltetrahydro-2H-pyran-4-yl)-1H-pyrazol-5-yl]-pyridine] | – |
| 5.7 nM | COc1ccccc1-n1nc(C2CC(C)(C)OC(C)(C)C2)cc1-c1ccc2c(ccn2C)c1 [Compound 21, 5-[1-(2-Methoxyphenyl)-3-(2,2,6,6-tetramethyltetrahydro-2H-pyran-4-yl)-1H-pyrazol-5-yl]-1-methyl-1H-indole] | – |
| 34 nM | COc1ccccc1-n1nc(C2CC(C)(C)OC(C)(C)C2)cc1C1=CCCC1 [Compound 37, 5-Cyclopent-1-en-1-yl-1-(2-methoxyphenyl)-3-(2,2,6,6-tetramethyltetrahydro-2H-pyran-4-yl)-1H-pyrazole] | – |
| 65 nM | COc1ccccc1-n1nc(C2CC(C)(C)OC(C)(C)C2)cc1-c1cc2ccccc2o1 [Compound 41, 5-(1-Benzofuran-2-yl)-1-(2-methoxyphenyl)-3-(2,2,6,6-tetramethyltetrahydro-2H-pyran-4-yl)-1H-pyrazole] | – |
| 55 nM | COc1ccccc1-n1nc(C2CC(C)(C)OC(C)(C)C2)cc1-c1ccc2[nH]ccc2c1 [Compound 42, 5-[1-(2-Methoxyphenyl)-3-(2,2,6,6-tetramethyltetrahydro-2H-pyran-4-yl)-1H-pyrazol-5-yl]-1H-indole] | – |
| 1.5 nM | COc1ccccc1-n1nc(C2CC(C)(C)OC(C)(C)C2)cc1-c1ccc2c(c1)OCCO2 [Compound 27, 5-(2,3-Dihydro-1,4-benzodioxin-6-yl)-1-(2-methoxyphenyl)-3-(2,2,6,6-tetramethyltetrahydro-2H-pyran-4-yl)-1H-pyrazole] | – |
| 2.4 nM | COc1ccccc1-n1nc(C2CC(C)(C)OC(C)(C)C2)cc1-c1ccc(N(C)C)cc1 [Compound 11, 4-[1-(2-Methoxyphenyl)-3-(2,2,6,6-tetramethyltetrahydro-2H-pyran-4-yl)-1H-pyrazol-5-yl]-N,N-dimethylaniline] | – |
| 11 nM | COc1ccccc1-n1nc(C2CC(C)(C)OC(C)(C)C2)cc1-c1ccc(OC(C)C)cc1 [Compound 24, 1-(2-Methoxyphenyl)-5-[4-(1-methylethoxy)phenyl]-3-(2,2,6,6-tetramethyltetrahydro-2H-pyran-4-yl)-1H-pyrazole] | – |

— US8901314B2, “Substituted pyrazoles as N-type calcium channel blockers” (Janssen Pharmaceutica NV, priority 2012, dated 2014)
